In one data set the test system is HT29 cells. Kind of data set: In vitro PDT cytotoxicity. It counts as cell-based, human. The following applies: with irradiation, LED 90 J/cm^2 (0.1 W/cm^2, 15 min), 640 or 650 nm. The method, then: (§1) The tumor cell uptake of NMOFs was evaluated by incubating CT26 cells with DBP-UiO or DBC-UiO at a Hf concentration of 50 μM for 4 h. […] The in vitro PDT efficacy of DBC-UiO against colon cancer cells was investigated and compared with DBP-UiO and their corresponding free ligands. […] DBP-UiO and […]: 640 nm; DBC-UiO and […]: 650 nm). DBC-UiO outperformed DBP-UiO by effectively killing both cancer cell lines at low NMOF and light doses.

Data set [1] can be described thus: Fluorescence lifetime by Time-Correlated Single Photon Counting; fluorescence intensity. It counts as physicochemical. The method, then:
The fluorescence spectra of H2DBP ligand and DBP-UiO NMOF were taken on a spectrofluorophotometer (RF-5301PC, Shimadzu Corporation, Kyoto, Japan).
Time-domain lifetimes were measured on a ChronosBH lifetime fluorimeter (ISS, Inc., Champaign, Ill., United States of America) using Time-Correlated Single Photon Counting (TCSPC) methods. The fluorimeter contained Becker-Hickl SPC-130 detection electronics and an HPM-100-40 Hybrid PMT detector. Tunable picosecond pulsed excitation was provided by a Fianium SC400-2 supercontiuum laser source with integrated pulse picker and AOTF. Emission wavelengths were selected with bandpass filters (Semrock and Chroma). The Instrument Response Function (IRF) was measured to be approximately 120 ps FWHM in a 1% scattering solution of Ludox LS colloidal silica. Lifetimes were fit via a forward convolution method in the Vinci control and analysis software.
Fluorescence spectra of suspensions of Hf-MOF (0.04 mM of L ligand) in water, DMF, and THF were taken with an excitation wavelength of 368.8 nm. […] Fluorescence lifetimes of Hf-MOF, Zr-MOF, and H2L suspensions in water were also examined.

The test system of the next data set is CT26 cells. The data set is described as follows: In vitro PDT cytotoxicity. It counts as cell-based, murine. The following applies: with irradiation, LED 90 J/cm^2 (0.1 W/cm^2, 15 min), 640 or 650 nm. The procedure:
as §1

Data set [2] has as its system subcutaneous flank tumor mouse model of HT29. Kind of data set: In vivo PDT anticancer efficacy. The following applies: ligand dose 1 mg/kg intratumoral, 90 J/cm^2, four treatments. Set-up: species or system mice. The procedure:
(§2) In vivo anticancer efficacy experiments on subcutaneous flank tumor mouse models of CT26 and HT29 were performed. The mice were intratumorally injected with (1) PBS control, (2) DBC-UiO, (3) DBP-UiO, (4) H2DBC, or (5) H2DBP at a ligand dose of 1 mg/kg or (6) DBC-UiO at a ligand dose of 3.5 mg/kg. Twelve hours post injection, each mouse in group (1)-(5) was irradiated at the tumor site with light (0.1 W/cm^2) for 15 min (90 J/cm^2) and the mice in group (6) received light irradiation (0.1 W/cm^2) for 30 min (180 J/cm^2). For (1) to (5) groups on the CT26 model, mice are treated again 4 days after first treatment, while for (1) to (5) groups on HT29 model, mice are treated every 4 days for total 4 treatments.

In data set [3] the test system is subcutaneous flank tumor mouse model of CT26. The data set is described as follows: In vivo PDT anticancer efficacy. Set-up: species or system mice. The following applies: ligand dose 1 mg/kg intratumoral, 90 J/cm^2, two treatments. The method, then:
as §2

A short description of data set [4]: UV-visible absorption, extinction coefficient. It counts as physicochemical. The method, then: The UV-visible absorption spectra of H2DBP and DBP-UiO were acquired with a UV-vis spectrophotometer (UV-2401 PC, Shimadzu Corporation, Kyoto, Japan). The H2DBP solution and DBP-UiO NMOF suspension were prepared in 0.67 mM phosphate buffer saline (PBS). The absorption of standard solutions of H2DBP at concentrations of 0.2, 0.4, 0.6, 0.8, 1, 1.5, 4 and 8 mg/L were acquired and the standard curve was plotted by linear fitting of the absorbance at 402 nm. The extinction coefficients of H2DBP at 402 nm and 619 nm are 2.2×10^5 and 1.7×10^3 M^−1cm^−1, respectively.
UV-visible absorption spectroscopy confirmed the photophysical properties of chlorin-based PSs. H2DBC has a split Soret band at λmax=408 nm and four Q-bands at 504, 534, 591, and 643 nm. […] The lowest energy Q-band of DBC-UiO has thus red-shifted by 13 nm from DBP-UiO, with an ε value of 24600 M^−1·cm^−1. H2DBC has an ε value of 21800 M^−1·cm^−1 for the lowest energy Q-band.

For the molecule 5, 15-di(p-benzoato)chlorin [H2DBC], the half-inhibitory concentration (IC50) was found to be 7.5 ± 2.3 µM with HT29 cells and 8.5 ± 0.1 µM in the data set on CT26 cells. The μ1 was 8.27 ns in data set [1] (in DMF) and 5.80 ns in data set [1] (in HBSS). In data set [1] (in HBSS), this molecule had a μ2 of 8.77 ns. The molecule further yielded a τ in data set [1] (in HBSS) of 8.15 ns. Moreover, the tumor growth result in data set [2] and in data set [3] was “failed to suppress the tumor growth” throughout. Besides, in data set [4], the “ε value of the lowest energy Q-band” value turned out to be 21800 M⁻¹ cm⁻¹.

`O=C(O)c1ccc(-c2c3nc(cc4ccc([nH]4)c(-c4ccc(C(=O)O)cc4)c4nc(cc5ccc2[nH]5)C=C4)C=C3)cc1` [H2DBP, 5,15-di(p-benzoato)porphyrin] returned a half-maximal inhibitory concentration (IC50) in the data set on HT29 cells of 17 ± 4 µM. In data set [1] (aq), this molecule displayed a μ1 of 12.4 ns, a μ2 of 7.86 ns and a τ of 10.9 ns. The molecule also had a μ1 in data set [1] (in DMF) of 11.3 ns. In the data set on CT26 cells, inhibition was half-maximal at 20 ± 3.1 µM (IC50). Besides, the tumor growth result in data set [2] is on record as “failed to suppress the tumor growth”. The tumor growth entry in data set [3] is “failed to suppress the tumor growth”. Further, in data set [4] (PBS), the “extinction coefficient at 402 nm” value is 220000 M⁻¹ cm⁻¹ and the “extinction coefficient at 619 nm” value amounted to 1700 M⁻¹ cm⁻¹.

By IC50 is commonly meant the concentration at which inhibition is half-maximal. The low end stands for higher potency, the high end for lower potency.

The values above are taken from patent US10806694B2, “Nanoparticles for photodynamic therapy, X-ray induced photodynamic therapy, radiotherapy, radiodynamic therapy, chemotherapy, immunotherapy, and any combination thereof” (The University of Chicago, priority 2014, dated 2020).
